Assay results from patent publication US8637525B2, “Compounds for the reduction of beta-amyloid production” (Bristol-Myers Squibb Company, priority 2009, dated 2014).
Read-outs that look alike come from different tables or passages of the source.

Tested on: Aβ1-42 production
Test: Cellular assay for inhibition of Aβ1-42 production (H4 APP751 SWE clone 8.20)
Format: cell-based
Conditions: H4 APP751 SWE clone 8.20 cells, 19 h incubation
Description: Cellular Assays for Inhibition of Aβ1-40 and Aβ1-42 Production
H4 cells stably transfected with APP751 containing the Swedish mutation (H4 APP751 SWE clone 8.20, developed at BMS) were maintained in log phase through twice weekly passage at a 1:20 split. […] Following incubation for 19 h in 5% CO2 at 37° C., plates were briefly centrifuged (1000 rpm, 5 min). A 10 μl aliquot from each well was transferred to a second assay plate (Costar 3709) for Aβ40 measurements. Antibody cocktails were freshly prepared by dilution into 40 mM Tris-HCl (pH 7.4) with 0.2% BSA and added to assay plates. For Aβ42 measurements, antibodies specific for the Aβ42 neoepitope (565, developed at BMS; conjugated to the Wallac reagent (Perkin Elmer)) and the N-terminal sequence of Aβ peptide (26D6, developed at SIBIA; conjugated to APC (Perkin Elmer)) were mixed and 20 μl of the mixture was added to each well of the incubated cell plate yielding a final concentration of 0.8 ng/well 565 and 75 ng/well 26D6. For the Aβ40 measurements, antibodies specific for the Aβ40 neoepitope (TSD, developed at BMS; conjugated to the Wallac reagent (Perkin Elmer)) and 26D6 as described above were mixed and 20 μl of the mixture was added to the 10 μl aliquots which had been removed previously from the cell plate yielding a final concentration of 1.6 ng/well TSD and 17.5 ng/well 26D6. Assay plates containing antibodies were sealed with aluminum foil and incubated overnight at 4° C. Signal was determined using a Viewlux counter (Perkin Elmer) and IC50 values determined using curve fitting in CurveMaster (Excel Fit based).

[1] = 19 h, class symbols, read-out: Activity Rating (Aβ42 cellular IC50)
[2] = class symbols, read-out: Activity Rating (Aβ42 cellular IC50)
[3] = 19 h, read-out: Activity Rating (Aβ42 cellular IC50), numeric value

| Structure (SMILES) | IC50 [2] [µM] | also measured |
| --- | --- | --- |
| CCN(C)c1nc(Nc2ccc(-n3cnc(Cl)c3)c(OC)c2)nc2c1CCCC2c1ccccc1 (racemic) [Example 124, N^2-(4-(4-Chloro-1H-imidazol-1-yl)-3-methoxyphenyl)-N^4-ethyl-N^4-methyl-8-phenyl-5,6,7,8-tetrahydroquinazoline-2,4-diamine] |  | IC50 [1]: 0.01 to 0.1 µM |
| COc1cc(Nc2nc3c(c(N(C)C)n2)CCCC3c2ccc(F)cc2)ccc1-n1cnc(Cl)c1 (racemic) [Example 127, N^2-(4-(4-Chloro-1H-imidazol-1-yl)-3-methoxyphenyl)-8-(4-fluorophenyl)-N^4,N^4-dimethyl-5,6,7,8-tetrahydroquinazoline-2,4-diamine] |  | IC50 [1]: 0.01 to 0.1 µM |
| CNc1nc(Nc2ccc(-n3cnc(Cl)c3)c(OC)c2)nc2c1CN(S(C)(=O)=O)CC2c1ccccc1 (racemic) [Example 129, N2-(4-(4-chloro-1H-imidazol-1-yl)-3-methoxyphenyl)-N4-methyl-6-(methylsulfonyl)-8-phenyl-5,6,7,8-tetrahydropyrido[4,3-d]pyrimidine-2,4-diamine] |  | IC50 [1]: 0.01 to 0.1 µM |
| CNc1nc(Nc2ccc(-n3cnc(Cl)c3)c(OC)c2)nc2c1C(=O)CC2c1ccccc1 (racemic) [Example 200, (±)-2-(4-(4-chloro-1H-imidazol-1-yl)-3-methoxyphenylamino)-4-(methylamino)-7-phenyl-6,7-dihydro-5H-cyclopenta[d]pyrimidin-5-one] |  | IC50 [1]: 0.01 to 0.1 µM |
| CNc1nc(Nc2ccc(-n3ncnc3C)c(F)c2)nc2c1CCC2c1ccccc1 (single isomer, unassigned) [Example 3A, N^2-(3-fluoro-4-(5-methyl-1H-1,2,4-triazol-1-yl)phenyl)-N^4-methyl-7-phenyl-6,7-dihydro-5H-cyclopenta[d]pyrimidine-2,4-diamine] | 0.0015 to 0.0099 |  |
| CNc1nc(Nc2ccc(-n3ncnc3C)c(F)c2)nc2c1CCC2c1ccccc1 (single isomer, unassigned) [Example 3B, N^2-(3-fluoro-4-(5-methyl-1H-1,2,4-triazol-1-yl)phenyl)-N^4-methyl-7-phenyl-6,7-dihydro-5H-cyclopenta[d]pyrimidine-2,4-diamine] | 0.01 to 0.1 |  |
| COc1cc(Nc2nc3c(c(N(C)C)n2)CCC3c2ccccc2)ccc1-n1cnc(Cl)c1 (single isomer, unassigned) [Example 4A, N^2-(4-(4-chloro-1H-imidazol-1-yl)-3-methoxyphenyl)-N^4,N^4-dimethyl-7-phenyl-6,7-dihydro-5H-cyclopenta[d]pyrimidine-2,4-diamine] | 0.0015 to 0.0099 |  |
| COc1cc(Nc2nc3c(c(N(C)C)n2)CCC3c2ccccc2)ccc1-n1cnc(Cl)c1 (single isomer, unassigned) [Example 4B, N^2-(4-(4-chloro-1H-imidazol-1-yl)-3-methoxyphenyl)-N^4,N^4-dimethyl-7-phenyl-6,7-dihydro-5H-cyclopenta[d]pyrimidine-2,4-diamine] | 0.01 to 0.1 |  |
| CCN(C)c1nc(Nc2ccc(-n3cnc(Cl)c3)c(OC)c2)nc2c1CCC2c1ccccc1 (single isomer, unassigned) [Example 5A, N^2-(4-(4-chloro-1H-imidazol-1-yl)-3-methoxyphenyl)-N^4-ethyl-N^4-methyl-7-phenyl-6,7-dihydro-5H-cyclopenta[d]pyrimidine-2,4-diamine] | 0.0015 to 0.0099 |  |
| CCN(C)c1nc(Nc2ccc(-n3cnc(Cl)c3)c(OC)c2)nc2c1CCC2c1ccccc1 (single isomer, unassigned) [Example 5B, N^2-(4-(4-chloro-1H-imidazol-1-yl)-3-methoxyphenyl)-N^4-ethyl-N^4-methyl-7-phenyl-6,7-dihydro-5H-cyclopenta[d]pyrimidine-2,4-diamine] | 0.01 to 0.1 |  |
| COc1cc(Nc2nc3c(c(N4CCC4)n2)CCC3c2ccccc2)ccc1-n1cnc(Cl)c1 (single isomer, unassigned) [Example 6A, 4-(azetidin-1-yl)-N-(4-(4-chloro-1H-imidazol-1-yl)-3-methoxyphenyl)-7-phenyl-6,7-dihydro-5H-cyclopenta[d]pyrimidin-2-amine] | 0.0015 to 0.0099 |  |
| COc1cc(Nc2nc3c(c(N4CCC4)n2)CCC3c2ccccc2)ccc1-n1cnc(Cl)c1 (single isomer, unassigned) [Example 6B, 4-(azetidin-1-yl)-N-(4-(4-chloro-1H-imidazol-1-yl)-3-methoxyphenyl)-7-phenyl-6,7-dihydro-5H-cyclopenta[d]pyrimidin-2-amine] | 0.01 to 0.1 |  |
| CNc1nc(Nc2ccc(-n3cnc(Cl)c3)c(OC)c2)nc2c1CCC2c1ccccc1 (single isomer, unassigned) [Example 7A, N^2-(4-(4-chloro-1H-imidazol-1-yl)-3-methoxyphenyl)-N^4-methyl-7-phenyl-6,7-dihydro-5H-cyclopenta[d]pyrimidine-2,4-diamine] | 0.0015 to 0.0099 |  |
| CNc1nc(Nc2ccc(-n3cnc(Cl)c3)c(OC)c2)nc2c1CCC2c1ccccc1 (single isomer, unassigned) [Example 7B, N^2-(4-(4-chloro-1H-imidazol-1-yl)-3-methoxyphenyl)-N^4-methyl-7-phenyl-6,7-dihydro-5H-cyclopenta[d]pyrimidine-2,4-diamine] | 0.01 to 0.1 |  |
| CNc1nc(Nc2ccc(-n3cnc(Cl)c3)c(OC)c2)nc2c1CCC2c1ccc(F)cc1 (single isomer, unassigned) [Example 11A, N^2-(4-(4-Chloro-1H-imidazol-1-yl)-3-methoxyphenyl)-7-(4-fluorophenyl)-N^4-methyl-6,7-dihydro-5H-cyclopenta[d]pyrimidine-2,4-diamine] |  | IC50 (19 h, read-out: Activity Rating (Aβ42 cellular IC50), numeric value printed without unit): 0.0038 µM |
| CNc1nc(Nc2ccc(-n3cnc(Cl)c3)c(OC)c2)nc2c1CCC2c1ccc(F)cc1 (single isomer, unassigned) [Example 11B, N^2-(4-(4-Chloro-1H-imidazol-1-yl)-3-methoxyphenyl)-7-(4-fluorophenyl)-N^4-methyl-6,7-dihydro-5H-cyclopenta[d]pyrimidine-2,4-diamine] |  | IC50 [1]: 0.0015 to 0.0099 µM |
| Cc1ncnn1-c1ccc(Nc2nc3c(c(N4CC(F)(F)C4)n2)CCC3c2ccc(F)cc2)cc1F (single isomer, unassigned) [Example 16A, 4-(3,3-difluoroazetidin-1-yl)-N-(3-fluoro-4-(5-methyl-1H-1,2,4-triazol-1-yl)phenyl)-7-(4-fluorophenyl)-6,7-dihydro-5H-cyclopenta[d]pyrimidin-2-amine] | 0.0015 to 0.0099 |  |
| Cc1ncnn1-c1ccc(Nc2nc3c(c(N4CC(F)(F)C4)n2)CCC3c2ccc(F)cc2)cc1F (single isomer, unassigned) [Example 16B, 4-(3,3-difluoroazetidin-1-yl)-N-(3-fluoro-4-(5-methyl-1H-1,2,4-triazol-1-yl)phenyl)-7-(4-fluorophenyl)-6,7-dihydro-5H-cyclopenta[d]pyrimidin-2-amine] | 0.1 to 1 |  |
| COc1cc(Nc2nc3c(c(N4CC(F)(F)C4)n2)CCC3c2ccc(F)cc2)ccc1-n1cnc(Cl)n1 (single isomer, unassigned) [Example 17A, N-(4-(3-chloro-1H-1,2,4-triazol-1-yl)-3-methoxyphenyl)-4-(3,3-difluoroazetidin-1-yl)-7-(4-fluorophenyl)-6,7-dihydro-5H-cyclopenta[d]pyrimidin-2-amine] |  | IC50 [3]: 0.12 µM |
| COc1cc(Nc2nc3c(c(N4CC(F)(F)C4)n2)CCC3c2ccc(F)cc2)ccc1-n1cnc(Cl)n1 (single isomer, unassigned) [Example 17B, N-(4-(3-chloro-1H-1,2,4-triazol-1-yl)-3-methoxyphenyl)-4-(3,3-difluoroazetidin-1-yl)-7-(4-fluorophenyl)-6,7-dihydro-5H-cyclopenta[d]pyrimidin-2-amine] |  | IC50 [1]: 0.01 to 0.1 µM |
| COc1cc(Nc2nc3c(c(N4C[C@@H]5C[C@H]4CO5)n2)CCC3c2ccc(F)cc2)ccc1-n1cnc(Cl)c1 (single isomer, unassigned) [Example 18A] |  | IC50 [3]: 0.0088 µM |
| COc1cc(Nc2nc3c(c(N4C[C@@H]5C[C@H]4CO5)n2)CCC3c2ccc(F)cc2)ccc1-n1cnc(Cl)c1 (single isomer, unassigned) [Example 18B] |  | IC50 [1]: 0.01 to 0.1 µM |
| COc1cc(Nc2nc3c(c(N4CCCC4C)n2)CCC3c2ccc(F)cc2)ccc1-n1cnc(Cl)c1 (single isomer, unassigned) [Example 19, N-(4-(4-chloro-1H-imidazol-1-yl)-3-methoxyphenyl)-7-(4-fluorophenyl)-4-(2-methylpyrrolidin-1-yl)-6,7-dihydro-5H-cyclopenta[d]pyrimidin-2-amine] | 0.01 to 0.1 |  |
| COc1cc(Nc2nc3c(c(N4CCCC4C)n2)CCC3c2ccc(F)cc2)ccc1-n1cnc(Cl)c1 (single isomer, unassigned) [Example 19A, N-(4-(4-chloro-1H-imidazol-1-yl)-3-methoxyphenyl)-7-(4-fluorophenyl)-4-(2-methylpyrrolidin-1-yl)-6,7-dihydro-5H-cyclopenta[d]pyrimidin-2-amine] | 0.01 to 0.1 |  |
